Measurements reported in a melting point compilation (Tetko et al.).

Row | SMILES | melting point
1 | O=C(CCl)N1CCN(S(=O)(=O)c2ccc(F)c(Cl)c2)CC1 | 121 to 123 °C
2 | O=C(O)CC1CSCCS1 (configuration not stated) | 77 to 79 °C
3 | O=C(O)c1ccccc1NC(=O)C(F)(F)F | 167 to 169 °C
4 | O=C(O)c1cccc(CS(=O)(=O)c2ccccc2)c1 | 194 to 196 °C
5 | Nc1cc(N)c(F)cc1F | 111 to 113 °C
6 | CCn1c(S)nnc1-c1ccncc1 | 140 to 142 °C
7 | COC(=O)c1ccc(N)s1 | 115 to 117 °C
8 | Cc1ccc(NC(=O)OC(C)(C)C)s1 | 103 to 105 °C
9 | NC(=O)C1CC(C(=O)O)=NN1c1ccccc1 (configuration not stated) | 209 to 211 °C
10 | NC(=O)c1ccc(OC(F)F)cc1 | 130 to 132 °C
11 | CC(=O)NCc1ccc(C(=O)CCl)cc1 | 139 to 141 °C
12 | Cc1cc(C(=O)CCl)c(C)n1-c1ccon1 | 87 to 89 °C
13 | Cc1ccc(-c2nnc(N)s2)c(C)c1 | 180 to 182 °C
14 | CCCN1C(=O)CC(=O)NC1=S | 127 to 129 °C
15 | Nc1ccc(C(=O)NCc2ccccc2F)cc1 | 95 to 97 °C
16 | Cc1csc(N2CCCC(C(=O)O)C2)n1 (configuration not stated) | 147 to 149 °C
17 | CCc1nc2cc(N)ccc2o1 | 69 to 71 °C
18 | Clc1nc(-c2ccccc2)nc2scc(-c3ccccc3)c12 | 147 to 149 °C
19 | CCOc1ccc(NC(=O)CO)cc1 | 150 to 152 °C
20 | NC(=O)c1nnc(O)nc1O | 294 to 296 °C
21 | Cc1cc(C)c(O)c(C(=O)O)c1 | 172 to 174 °C
22 | N#CCCn1cc(/C=C/C(=O)O)c2ccccc21 | 188 to 192 °C
23 | O=C(O)CC(O)(c1nc2ccccc2o1)C(F)(F)F (configuration not stated) | 194 to 196 °C
24 | CC(=O)c1ccc(-c2ccc(Br)s2)cc1 | 148 to 150 °C
25 | CN1C(=O)CNc2ccccc21 | 88 to 90 °C
26 | O=[N+]([O-])c1ccc(O)cc1Cl | 115 to 117 °C

Row | SMILES | melting point
27 | COC(=O)c1ccc(Cl)nc1Cl | 56 to 58 °C
28 | c1ccc(NCc2cccc3ccccc23)cc1 | 54 to 56 °C
29 | O=C(O)C1CC2CCC(C1)N2C1CC1 (configuration not stated) | 156 to 158 °C
30 | COc1ccc(N)c(C(=O)NC2CC2)c1 | 137 to 139 °C
31 | O=C(O)c1cc(OCC(F)(F)F)cc(OCC(F)(F)F)c1 | 141 to 143 °C
32 | Cc1nnc(-c2cccc(C(=O)O)c2)o1 | 241 to 243 °C
33 | OCC1CNC(c2ccccc2)=NO1 (configuration not stated) | 149 to 151 °C
34 | CC(C)c1ccc(-c2ncc(CSc3nnc(N)[nH]3)s2)cc1 | 168 to 170 °C
35 | CN(CCCC(=O)O)S(=O)(=O)c1ccc(F)cc1 | 74 to 76 °C
36 | CN(Cc1c(F)cccc1Cl)C(=O)CCl | 54 to 56 °C
37 | Nc1cc(CC2CC3CCC2C3)no1 (configuration not stated) | 86 to 88 °C
38 | CC(C)Cn1[nH]ccc1=NC(=O)OCC(F)(F)F | 63 to 65 °C
39 | Cc1nc(C)c(C)c(O)n1 | 276 to 278 °C
40 | CCOc1cc(Br)c(C=O)cc1OCC | 71 to 72 °C
41 | Clc1ncc(-c2ccccc2)s1 | 40 to 42 °C
42 | O=C1Nc2ccc(Br)cc2C12CCCC2 | 201 to 203 °C
43 | CC(C)(C)c1nnc(N)o1 | 226 to 228 °C
44 | NS(=O)(=O)C=Cc1cccc(Br)c1 | 153 to 155 °C
45 | O=C(NCc1ccc(C(=O)O)cc1)OCc1ccccc1 | 190 to 192 °C
46 | CNC(=O)c1c(C)cccc1N | 109 to 111 °C
47 | CCOC(=O)c1sc2nc(CSc3ccccc3)nc(Cl)c2c1C | 52 to 54 °C
48 | CS(=O)(=O)c1ccc(N)c(N)c1 | 125 to 127 °C
49 | NS(=O)(=O)c1ccc(C(=O)CBr)cc1 | 149 to 151 °C
50 | Cc1nn(C(C)(C)C)c(C)c1S(=O)(=O)Cl | 68 to 70 °C
51 | O=C(O)CS(=O)(=O)c1ccc([N+](=O)[O-])cc1 | 162 to 164 °C
52 | CCC(CC)n1ncc(C(=O)O)c1C | 154 to 156 °C

Row | SMILES | melting point
53 | ClCc1nc(-c2ccc(Br)s2)no1 | 42 to 44 °C
54 | CC(CC(=O)O)NC(=O)OC(C)(C)C (configuration not stated) | 94 to 96 °C
55 | O=C(O)C1CCn2ccnc2C1 (configuration not stated) | 231 to 233 °C
56 | CCNS(=O)(=O)c1c[nH]c(C(=O)O)c1 | 183 to 185 °C
57 | CC(Cl)C(=O)Nc1cccc(S(=O)(=O)N(C)C)c1 (configuration not stated) | 163 to 167 °C
58 | Nc1cc(-c2ccco2)ccc1F | 40 to 42 °C
59 | CC(N)c1ccc(-c2cccnc2)cc1 (configuration not stated) | 47 to 49 °C
60 | Cc1sc2ncn(CCC(=O)O)c(=O)c2c1C | 194 to 196 °C
61 | O=c1[nH]cnc2cc(F)c(F)cc12 | 264 to 266 °C
62 | Nc1ccccc1NC(=O)c1ccccc1 | 149 to 151 °C
63 | CC(C)c1nn(-c2ccccc2)cc1C=O | 59 to 61 °C
64 | Nc1ccc(C(=O)Nc2nccs2)cc1 | 256 to 258 °C
65 | O=C(O)CCNC(=O)c1ccoc1 | 154 to 156 °C
66 | N#Cc1cc(Cl)ccc1CO | 99 to 101 °C
67 | O=C(O)c1ccc2c(=O)n(-c3ccccc3)c(S)nc2c1 | 368 to 370 °C
68 | Cc1nc(-c2ccccc2Br)sc1C(C)O (configuration not stated) | 79 to 81 °C
69 | CC1(C)NC(=O)N2C1=NC(=N)C2(C)C | 236 to 238 °C
70 | CC(C)c1nc(C#N)c(NN)o1 | 103 to 105 °C
71 | O=C1CC2(Cc3ccccc3C2)C(=O)N1 | 173 to 175 °C
72 | CC(O)C(NC(=O)C1CC1)C(=O)O (configuration not stated) | 138 to 140 °C
73 | CC(C)CNS(=O)(=O)c1cc(C(=O)O)c(Cl)cc1Cl | 179 to 181 °C
74 | CCOC(=O)c1c(NC(=O)C(C)Cl)sc2c1CCC(C)C2 (configuration not stated) | 90 to 93 °C
75 | Nc1cc(Br)ccc1-n1cccn1 | 69 to 71 °C
76 | Cc1cc(C)nc(N)c1 | 63 to 64 °C
77 | Cc1cc(C)cc(C(=O)/C=C2\NC(=O)CS2)c1 | 163 to 165 °C
78 | O=C(O)C1CCCN1C(=O)c1ccc2ccccc2c1O (configuration not stated) | 197 to 199 °C

Row | SMILES | melting point
79 | O=c1[nH]nc(-c2ccc(F)cc2)c2ccccc12 | 270 to 272 °C
80 | CCC1C(=O)NCCN1C(N)=S (configuration not stated) | 216 to 218 °C
81 | Fc1ccc(-c2nnc(CCl)o2)cc1 | 138 to 140 °C
82 | Nc1ccc(Oc2cnccn2)cc1 | 138 to 140 °C
83 | O=C(CSc1ccccc1C(=O)O)c1ccc(-c2ccccc2)cc1 | 189 to 191 °C
84 | CC(=O)c1csc(N)n1 | 165 to 177 °C
85 | Nc1c(-c2ccccc2)nc2sccn12 | 148 to 152 °C
86 | NC1CCN(c2cccc(Cl)c2)C1=O (configuration not stated) | 99 to 101 °C
87 | Cc1cc(O)cc(C(=O)O)c1 | 205 to 207 °C
88 | CCNc1ccc(C(=O)O)cc1[N+](=O)[O-] | 239 to 241 °C
89 | Clc1nccc(-n2cccn2)n1 | 118 to 120 °C
90 | O=c1[nH]c(Cl)cc2ccccc12 | 214 to 216 °C
91 | Nc1cccc(NC(=O)C2CCCCC2)c1 | 139 to 141 °C
92 | O=C1CCC(O)(C(F)(F)F)CC1 | 123 to 125 °C
93 | COc1ccc(C(=O)N2CCCC(C(=O)O)C2)c2ccccc12 (configuration not stated) | 255 to 257 °C
94 | N#CC(Cl)c1c(F)cccc1Cl (configuration not stated) | 49 to 51 °C
95 | Cc1cccc2nc(CCl)cc(=O)n12 | 120 to 122 °C
96 | Nc1cccc(Cl)c1N1CCOCC1 | 154 to 156 °C
97 | O=C(CC1CCCCC1)Nc1cccc2c1NCCC2 | 179 to 181 °C
98 | CC(C)CN1CCCC(C(=O)O)C1 (configuration not stated) | 108 to 110 °C
99 | O=C(O)C1CCCN(S(=O)(=O)c2ccc(F)cc2)C1 (configuration not stated) | 156 to 160 °C
100 | O=c1[nH]c(-c2ccccc2Br)cs1 | 169 to 171 °C
101 | COc1cc2ncn(CCCC(=O)O)c(=O)c2cc1OC | 198 to 200 °C
102 | Cc1csc(Sc2ccc(N)c(C)c2)n1 | 61 to 63 °C
